The subject of experiment [1] is AT2R-overexpressing PC12W cells. The experiment in a line: Neurite outgrowth in AT2R-overexpressing PC12W cells. The experiment is classed as cell-based, rat. Conditions: Ad-AT2R transduced PC12W cells, 1 nM, 24 h stimulation; dose-dependent in the range of 1 pM to 100 nM. The procedure: Figure 3 (a) Competition binding assays of [Y]^6-AII analogue to AT1R, AT2R wild type, and mutants: AT1R, open circle; wild type AT2R, black circles; AT2R-Y189A, blue diamonds; AT2R-Y189N, green triangle; AT2R-F272(6.51)A, red square; AT2R-F272(6.51)H, orange triangle. Kd and Ki values are given in Supplementary Table S3. […] The neurite outgrowth-positive cells were defined as the cells with neurite length longer than their cell diameters. This experiment was carried out in triplicate and repeated twice.
(§1) Materials. AT2R receptor-specific blocker PD123319 was purchased from Sigma-Aldrich Chemical Co. (St. Louis, MO). Human AGTR2 pcDNA3.1+ was obtained from the UMR cDNA Resource Center (University of Missouri-Rolla, Rolla, MO). All other chemicals were of analytic grade. The AT1aR and AT2R constructs were a kind gift from Lazlo Hunyady (Semmelweis University, Budapest, Hungary;1).
Mutagenesis. AT2R mutants were generated as described elsewhere.2 […]
(§2) (pcDNAI/Amp) or AT2R variants using GeneJuice transfection reagent according to the manufacturer’s instructions. Cells were harvested 48 hours after transfection, crude membranes were prepared and resuspended in binding buffer (50 mM Tris-HCl pH 7.4, 100 mM NaCl, 10 mM MgCl2, 1mM EDTA, 0.2% BSA and 0.025% Bacitracin, protease inhibitors) at a protein concentration of 3.3 μg/μl as determined by the amido black protein assay. […]

Experiment [2] addresses AT2R. In words: [125I]-AII radioligand binding on isolated membranes, wild type AT2R. The note with it: saturation assay, membranes of transfected HEK-293T cells, 2 hours on ice.
Excerpt: as §1
(§3) Mutagenesis. AT2R mutants were generated as described elsewhere.2
Cell culture and transient transfection. HEK-293T cells were maintained at 37 °C in Dulbecco's modified Eagle's medium (DMEM) supplemented with 10% (v/v) fetal bovine serum (FBS), 2 mM glutamine, 100 U/ml penicillin, and 100 µg/ml streptomycin. […]
as §2
(§4) 0-10 nM (8 data points in triplicate). Non-specific binding was determined in […]
the Figure 3. […] Radioactivity was counted on a Beckman LS6000 liquid scintillation counter and data were analyzed by non-linear regression using Prism software (GraphPad). […]

Experiment [3] addresses T1, AT2R (Homo sapiens, UniProt P50052).
T1 construct: expressed in transfected cells
T1 sequence (P50052 1-363): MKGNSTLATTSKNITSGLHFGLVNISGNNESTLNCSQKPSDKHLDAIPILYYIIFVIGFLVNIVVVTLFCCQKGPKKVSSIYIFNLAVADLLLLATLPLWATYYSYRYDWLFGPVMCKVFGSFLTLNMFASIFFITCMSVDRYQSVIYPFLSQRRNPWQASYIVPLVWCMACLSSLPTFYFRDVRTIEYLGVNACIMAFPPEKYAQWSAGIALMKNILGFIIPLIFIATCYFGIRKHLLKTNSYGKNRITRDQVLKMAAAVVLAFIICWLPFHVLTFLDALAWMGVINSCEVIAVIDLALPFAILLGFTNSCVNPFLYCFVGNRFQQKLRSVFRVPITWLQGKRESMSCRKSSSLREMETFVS
The experiment in a line: Whole cell competition binding assay, AT2R-HEK-293 stable cell line. The note with it: for IC50: whole cells, Table S4, read-out: Log IC50 AT2R (converted); for Fold selectivity AT1R/AT2R (IC50AT1R/IC50AT2R): whole cell IC50 values; for fold lower AT2R selectivity in comparison to [Y]6-AII: AT2R/AT1R selectivity relative to [Y]6-AII.
Excerpt: as §1, §3
Cell culture and transient transfection. HEK-293T cells were maintained at 37 °C in Dulbecco's modified Eagle's medium (DMEM) supplemented with 10% (v/v) fetal bovine serum (FBS), 2 mM glutamine, 100 U/ml penicillin, and 100 µg/ml streptomycin. Cells were transfected with either AT1R (pcDNA3.1), AT2R
(pcDNAI/Amp) or AT2R variants using GeneJuice transfection reagent according to the manufacturer’s instructions. Cells were harvested 48 hours after transfection, crude membranes were prepared and resuspended in binding buffer (50 mM Tris-HCl pH 7.4, 100 mM NaCl, 10 mM MgCl2, 1mM EDTA, 0.2% BSA and 0.025% Bacitracin, protease inhibitors) at a protein concentration of 3.3 μg/μl as determined by the amido black protein assay. For whole cells assays, HEK-293 cells stably transfected with either AT1R or the AT2R (kindly supplied by Professor W. Thomas, University of Queensland) were used. These cells were grown to approximately 80% confluence and were then re-plated into 48 well plates at 1x10^5 cells/well and grown for 48 hours at 37°C for a whole cell competition binding assay, as described previously.4 Minor differences between the binding assays performed on isolated membrane preparation and whole cells are probably due to the loss of G-protein in the former.5 PC12W cells, a substrain from a clonal isolation of a rat adrenal chromaffin cell tumor, were cultured in DMEM supplemented with 10% FBS, 100 units/ml penicillin and 100μg/ml streptomycin (Invitrogen, Carlsbad, CA) as previously described.6 The cells were incubated in a 5% CO2 humidified incubator at 37°C. Preparation of recombinant replication-deficient adenovirus containing the human AT2R coding region was carried out by VECTOR BIOLABS (Philadelphia, PA).
For gene transduction with adenoviral vectors cells were seeded at 1.2 x 10^5 cells per well in a 6-well plate. After 24 hours, cells were incubated at 37°C for 6 hours in serum-free DMEM containing adenoviral vectors (Ad-AT2R 30 multiplicity of infection (MOI)), and shaken lightly every fifteen minutes. After 6 hr incubation, cells were cultured in 10% FBS containing DMEM at 37°C, 5% CO2 for an additional 24 hours.
Cells were then trypsinized and subcultured at a density of 2 x 10^3 cells per well on a 24-well plate. For the evaluation of the effect of [Y]6-AII analogue on the neurite outgrowth of PC12W cells, at 24 hours after subculture, control cells and the AT2R […]
Radioligand binding assays. Saturation curves on cell membranes were obtained using 10 μg protein per data point and a range of *125I]-AII (Amersham) concentration […]
as §4
Competition assays were performed using a concentration […]
the Figure 3. Samples were incubated for 2 hours at 4°C. Receptor-bound and free radioligand were separated by filtration through Whatman GF/B filters, pre-soaked with 0.3% polyethylamine. The filters were washed with 5 ml of ice-cold binding buffer and transferred to scintillation tubes. Radioactivity was counted on a Beckman LS6000 liquid scintillation counter and data were analyzed by non-linear regression using Prism software (GraphPad). Ki values were calculated according to the Cheng […]
Experiments on whole cells were performed in both AT1R- and AT2R-HEK-293 stable cell lines, as previously described in detail4 with minor modifications. Novel peptides and references compounds, CGP42112 and candesartan, were examined for their ability to inhibit specific binding of [125I]-Ang II, and nonspecific binding was determined using 10μM cold Ang II. […]

The target of experiment [4] is T2, AT1R (Rattus norvegicus, UniProt P25095).
T2 construct: expressed in transfected cells; host or cells: HEK-293T, transient, crude membranes
T2 sequence (P25095 1-359): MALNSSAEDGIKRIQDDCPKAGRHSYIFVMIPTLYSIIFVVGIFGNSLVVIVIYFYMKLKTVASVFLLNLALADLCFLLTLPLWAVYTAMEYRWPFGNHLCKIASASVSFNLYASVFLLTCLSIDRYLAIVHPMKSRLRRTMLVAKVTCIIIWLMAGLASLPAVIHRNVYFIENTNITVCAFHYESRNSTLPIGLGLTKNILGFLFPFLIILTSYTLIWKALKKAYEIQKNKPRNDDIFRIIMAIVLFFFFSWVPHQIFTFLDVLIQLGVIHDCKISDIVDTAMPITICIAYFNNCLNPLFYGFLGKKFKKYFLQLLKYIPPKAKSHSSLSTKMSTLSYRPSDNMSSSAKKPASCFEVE
In words: [125I]-AII radioligand binding on isolated membranes, AT1R. The note with it: competition with [125I]-AII, ligand concentration range 6.4 x 10-12-2.5 x 10^-6 M.

For experiment [5], the system named is PAR1 receptor. Set-up: method as in Faruqi T., et al. [12]. Conditions: ref Faruqi T., et al. [12]; cited from earlier work.
Experiment [6] deals with PAR4 receptor. Also on record: method as in Faruqi T., et al. [12]. The note with it: ref Faruqi T., et al. [12]; cited from earlier work.

Ends that are not written are not given here. Peptide text beside a SMILES is read from it.

The Kd is the constant that tells how readily two partners part at equilibrium. The low end stands for higher affinity, the high end for lower affinity. For orientation: IC50 means the concentration needed to halve the response being measured.

For `CC[C@H](C)[C@H](NC(=O)[C@H](Cc1ccc(O)cc1)NC(=O)[C@@H](NC(=O)[C@H](CCCNC(=N)N)NC(=O)[C@@H](N)CC(=O)O)C(C)C)C(=O)N[C@@H](Cc1c[nH]cn1)C(=O)N1CCC[C@H]1C(=O)N[C@@H](Cc1ccccc1)C(=O)O` [AII], the neurite outgrowth result in experiment [1] is “significantly stimulated neurite outgrowth”. For the same molecule, the Kd in experiment [2] came to 2.3 nM.

For the molecule `CC[C@H](C)[C@H](NC(=O)[C@@H]1CCCN1C(=O)[C@H](Cc1c[nH]cn1)NC(=O)[C@H](CCCCNC(=O)[C@H](CCCN=C(N)N)NC(=O)OCc1ccccc1)NC(=O)[C@H](Cc1ccc(O)cc1)NC(=O)c1cccnc1)C(=O)O` [CGP42112] (HELM PEPTIDE1{[O=C(c1cccnc1)[*:2]].Y.K.H.P.I}|PEPTIDE2{[O=C(OCc1ccccc1)[*:2]].R}$PEPTIDE1,PEPTIDE2,3:R3-2:R2$$$V2.0), in experiment [3], the IC50 is 0.558 nM.

For `CCOc1nc2cccc(C(=O)O)c2n1Cc1ccc(-c2ccccc2-c2nnn[nH]2)cc1` [Candesartan, candesartan], the concentration for half-maximal inhibition (IC50) in experiment [3] was 13500 nM.

With `CC[C@H](C)[C@H](NC(=O)[C@H](Cc1ccc(O)cc1)NC(=O)[C@@H](NC(=O)[C@H](CCCNC(=N)N)NC(=O)[C@@H](N)CC(=O)O)C(C)C)C(=O)N[C@@H](Cc1ccc([N+](=O)[O-])cc1)C(=O)N1CCC[C@H]1C(=O)N[C@@H](Cc1ccccc1)C(=O)O` [[4-NO2-F]^6-AII, D1-R2-V3-Y4-I5-(4-NO2-F)6-P7-F8] (HELM PEPTIDE1{D.R.V.Y.I.[O=C([C@H](Cc1ccc([N+](=O)[O-])cc1)N[*:1])[*:2]].P.F}$$$$V2.0), in experiment [3], the “Fold selectivity AT1R/AT2R (IC50AT1R/IC50AT2R)” value (shortened to “Fold selectivity AT1R/AT2R”) is recorded as 694 fold, the “fold lower AT2R selectivity in comparison to [Y]6-AII” value is on record as 26 fold and the IC50 is 4.92 nM.

Turning to `CC[C@H](C)[C@H](NC(=O)[C@H](Cc1ccc(O)cc1)NC(=O)[C@@H](NC(=O)[C@H](CCCNC(=N)N)NC(=O)[C@@H](N)CC(=O)O)C(C)C)C(=O)N[C@@H](Cc1ccc(OP(=O)(O)O)cc1)C(=O)N1CCC[C@H]1C(=O)N[C@@H](Cc1ccccc1)C(=O)O` [[4-OPO3H2-F]^6-AII, D1-R2-V3-Y4-I5-(4-OPO3H2-F)6-P7-F8] (HELM PEPTIDE1{D.R.V.Y.I.[O=C([C@H](Cc1ccc(OP(=O)(O)O)cc1)N[*:1])[*:2]].P.F}$$$$V2.0), in experiment [3], the “Fold selectivity AT1R/AT2R” value is given as 4479 fold and the 50% inhibitory concentration (IC50) is 9.57 nM. In addition, in experiment [4], the “Ki AT1R” value is on record as “No detectable competitive binding”.

As to “DRVYIFPF [[F]^6-AII, D1-R2-V3-Y4-I5-F6-P7-F8] [listing 1 of 2 here]”, in experiment [3], the IC50 is 1.4 nM.

“DRVYIFPF [[F]^6-AII, D1-R2-V3-Y4-I5-F6-P7-F8] [listing 2 of 2 here]”: in experiment [3], the “Fold selectivity AT1R/AT2R” value turned out to be 4786 fold and the “fold lower AT2R selectivity in comparison to [Y]6-AII” value is given as about 4 fold.

For the molecule “DRVYIYPF [[Y]^6-AII, D1-R2-V3-Y4-I5-Y6-P7-F8]”, in experiment [3], the “Fold selectivity AT1R/AT2R” value is on record as 18,000 fold. The “Ki AT1R” value in experiment [4] is “No detectable competitive binding”.

For the molecule G(F)PGKF, the PAR1 receptor activity in experiment [5] is recorded as 111. For the same molecule, the PAR4 receptor activity in experiment [6] was 61.

As for GFPGKF, the PAR1 receptor activity in experiment [5] was 35. Moreover, the PAR4 receptor activity in experiment [6] was 53.

As for GYPGKF, the PAR1 receptor activity in experiment [5] is given as 0. Moreover, the PAR4 receptor activity in experiment [6] is 55.

Turning to “[125I]-AII: radioiodinated AII, radioligand of the binding assays (DRVYIHPF; also: 125I label, position not given here; UniProt P01019 25-32, looked up)”, in experiment [2], binding was put at a Kd of 2.3 nM.

These data come from article PMC4374176 (ACS Chemical Biology, 2014).
